According to the supplement of paper PMC10307832:

How the values were obtained:
Assay in all cases: relative viability (nuclei count vs DMSO), 5 days (fraction); higher = more cells survive
[1] = compound: NCC(=O)Nc1ccc(-n2nc(C(F)(F)F)cc2-c2ccc3c(ccc4ccccc43)c2)cc1 + CC(C)C[C@H](NC(=O)[C@H](Cc1ccccc1)NC(=O)c1cnccn1)B(O)O [Bortezomib] (partner 0.002 µM)
In short: (§1)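 Five library-drug doses in √10 steps were combined with a fixed anchor-drug dose, or a single drug was given alone, by pin tool to lung cancer cell lines in 1536-well plates the day after seeding. Nuclei were stained and counted after 5 days. Relative viability is the nuclei count in treated wells over that in vehicle wells, taken as the median of duplicate plates.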

[2] = compound: NCC(=O)Nc1ccc(-n2nc(C(F)(F)F)cc2-c2ccc3c(ccc4ccccc43)c2)cc1 + CC(=O)c1c(C)c2cnc(Nc3ccc(N4CCNCC4)cn3)nc2n(C2CCCC2)c1=O [Palbociclib] (partner 0.5 µM)
In short: as §1

[3] = compound: NCC(=O)Nc1ccc(-n2nc(C(F)(F)F)cc2-c2ccc3c(ccc4ccccc43)c2)cc1 + CS(=O)(=O)CCNCc1ccc(-c2ccc3ncnc(Nc4ccc(OCc5cccc(F)c5)c(Cl)c4)c3c2)o1 [Lapatinib] (partner 2 µM)
In short: as §1

[4] = compound: C1CSC2=C(C(=O)N1)SC3=C2C=C(C=C3)O [kb NB 142-70] + COc1cccc2cc(-c3nc([C@H]4CC[C@H](C(=O)O)CC4)n4ncnc(N)c34)[nH]c12 [OSI-027] (partner 0.5 µM)
In short: as §1

Cell Line	relative viability ([1]; first compound 0.02 µM)	relative viability ([1]; first compound 0.06325 µM)	relative viability ([1]; first compound 0.2 µM)	relative viability ([1]; first compound 0.6325 µM)	relative viability ([1]; first compound 2 µM)	relative viability ([2]; first compound 0.02 µM)	relative viability ([2]; first compound 0.06325 µM)	relative viability ([2]; first compound 0.2 µM)	relative viability ([2]; first compound 0.6325 µM)	relative viability ([2]; first compound 2 µM)	relative viability ([3]; first compound 0.02 µM)	relative viability ([3]; first compound 0.06325 µM)	relative viability ([3]; first compound 0.2 µM)	relative viability ([3]; first compound 0.6325 µM)	relative viability ([3]; first compound 2 µM)	relative viability ([4]; first compound 0.1 µM)	relative viability ([4]; first compound 1 µM)	relative viability ([4]; first compound 3.162 µM)
EKVX	1.05	1.09	1.16	1.02	0.984	0.436	0.417	0.397	0.348	0.382	0.213	0.216	0.228	0.223	0.203	0.707	0.675	0.788
EPLC-272H	0.806	0.873	0.868	0.943	1.14	0.332	0.306	0.36	0.335	0.326	0.88	1.09	0.85	0.907	1.21	0.278	0.243	0.187
NCI-H2126	1.12	1.15	1.15	1.13	1.14	0.369	0.334	0.369	0.385	0.327	0.792	0.763	0.787	0.793	0.751	0.791	0.629	0.674
LXF-289	1.05	1.1	0.966	1.02	1.01	0.591	0.599	0.59	0.588	0.628	0.953	0.953	0.916	0.891	0.887	0.737	0.695	0.681
NCI-H2009	0.911	1.05	0.825	0.963	1.08	0.236	0.147	0.265	0.186	0.272	0.872	0.948	0.868	0.935	0.958	0.678	0.68	0.395
NCI-H2405	0.924	1.04	0.999	0.961	0.987	0.501	0.519	0.556	0.515	0.517	1.05	1.12	1.13	1.02	1.13	0.652	0.615	0.546
NCI-H1755	0.892	0.935	0.958	0.946	0.978	0.48	0.444	0.448	0.471	0.434	1.01	1	1.07	1.02	1.06	0.741	0.722	0.737
HCC-78	0.53	0.568	0.496	0.571	0.505	0.541	0.482	0.526	0.403	0.496	0.819	1.04	0.745	0.742	0.342	0.379	0.375	0.34
LOU-NH91	0.485	0.523	0.485	0.511	0.484	0.647	0.519	0.528	0.541	0.582	0.848	0.678	0.781	0.797	0.767	0.699	0.695	0.651
NCI-H3122	1.02	1.02	0.984	1	1.05	0.197	0.182	0.179	0.206	0.155	1.08	1.05	1.01	0.988	0.934	0.922	0.919	0.726
HCC-827	1.02	1.12	1.04	1	1.15	0.501	0.545	0.509	0.486	0.504	0.178	0.201	0.172	0.199	0.23	0.775	0.759	0.775
SK-LU-1	1.07	1.22	1.23	1.07	1.31	0.447	0.442	0.404	0.372	0.434	0.87	0.841	0.887	0.905	0.929	0.355	0.305	0.219
NCI-H1975	0.37	0.414	0.44	0.345	0.426	0.657	0.61	0.615	0.485	0.586	0.816	0.915	0.854	0.91	0.969	0.808	0.741	0.597
NCI-H1651	0.961	0.919	0.977	0.909	0.985	0.508	0.555	0.497	0.539	0.541	0.715	0.758	0.782	0.909	0.85	0.725	0.657	0.471
LCLC-97TM1	0.814	0.75	0.35	0.538	0.539	0.249	0.205	0.22	0.233	0.199	0.816	1.13		0.981	0.893	0.635	0.407	0.237
NCI-H727	0.849	0.977	0.724	0.847	1.04	0.674	0.795	0.56	0.72	0.682	1.02	0.968	0.655	0.917	0.9	0.716	0.583	0.67
NCI-H1355	1.22	1.28	1.15	1.19	1.29	0.426	0.43	0.393	0.408	0.405	1	1.05	1.08	0.951	1.05	0.44	0.38	0.378
HOP-62	0.828	0.859	0.728	0.339	1.02	0.453	0.384	0.42	0.452	0.545	1.06	0.913	0.998	0.959	1.14	0.868	0.751	0.699
NCI-H2085	1.09	1.05	1.03	1	1.07	0.533	0.477	0.474	0.469	0.473	0.718	0.78	0.742	0.813	0.818	0.878	0.876	0.388
